The values that follow come from patent US20090227606A1, “Methods for Preventing or Treating Acute and Chronic Pain” (priority 2006, published 2009).

Experiment [1] has as its system GLT-1. Nature of the experiment: Immunocytochemistry of cultured astrocytes, GLT-1 staining. In kind it is cell-based, rat. As to conditions: treated astrocytes. Here is the method:
(§1) Primary astrocyte-enriched cultures were plated onto sterile 18 mm glass coverslips. After three washes in PBS, cells were permeabilized in 5% glacial acetic acid/95% ethanol (acid-alcohol) for 10 minutes. After washing, cells were incubated in a 1% normal goat serum for 30 minutes and then overnight at 4° C. in primary mouse anti-GFAP (1:500), rabbit anti-GLT-1 (1:500) or guinea pig anti-GLAST (1:2000). The following day, cells were washed and then incubated for 2 hours at room temperature with goat anti-mouse Alexa Fluor™-555 (Invitrogen Corporation, Carlsbad, Calif.) goat anti-guinea pig Alexa Fluor™-488 (Invitrogen Corporation, Carlsbad, Calif.) or goat anti-rabbit Alexa Fluor™-488 (Invitrogen Corporation, Carlsbad, Calif.; all at 1:250). Finally, cells were post-fixed in acid-alcohol and mounted with Vectashield (Vector Labs, Burlingame, Calif.) containing 4′,6-diamidino-2-phenylindole dihydrochloride hydrate (DAPI, Sigma Chemical Co., St Louis, Mo.), in order to visualize cell nuclei. The sections were examined with a fluorescence microscope, and images were captured with a Q-Fire cooled camera (Olympus, Melville, N.Y.). Confocal microscopy was also performed using a Zeiss LSM 510 Meta confocal microscope (Carl Zeiss AG, Oberkochen, Germany). Merged color images were processed using Adobe Photoshop 7.0 (Adobe Systems, San Jose, Calif.).

The subject of experiment [2] is GLAST. The experiment in a line: Immunocytochemistry of cultured astrocytes, GLAST staining. As to conditions: treated astrocytes. In kind it is cell-based, rat. On the procedure: as §1
Experiment [3] has as its system GLAST mRNA. Nature of the experiment: Real Time RT-PCR of ipsilateral lumbar spinal cord, GLAST mRNA. It is filed as in vivo, rat. On the procedure: Tissue was collected from 4-5 rats/group on postoperative days 4 or 12. In order to obtain both mRNA and protein from the same tissue sample, the L5 region of the spinal cord (ipsilateral to the injury), was isolated and placed in PBS supplemented with protease inhibitor cocktail (1:1000, Sigma Chemical Co., St. Louis, Mo.) and RNase inhibitor (0.75 U/μL Ambion, Austin, Tex.). Samples were sonicated in five one-second bursts at half-maximal power, centrifuged at 6500 rpm for 15 minutes at 4° C. Protein-containing supernatants were collected and stored at −80° C. until further processing by Western blot analysis. […]
Real time RT-PCR reactions were carried out in a total reaction volume of 25 μL containing a final concentration of 1.5 U Platinum Taq DNA polymerase (Invitrogen Corporation, Carlsbad, Calif.); 20 mM Tris HCl (pH 8.4); 50 mM KCl; 3 mM MgCl2; 200 μM dGTP, dCTP, and dATP; 400 μM dUTP and 1 U of UDG (uracyl DNA glycosylase); 900 nM of forward and reverse primers; 300 nM Taqman probe; and 5 μL of a 10-fold dilution of cDNA (50 ng) from the RT step. The iCycler™ Multicolor Real-Time PCR detection system (Bio-Rad, Hercules, Calif.) was used to quantify PCR product. […] The relative fold change from control was then expressed by calculation of 2^−ΔΔC^T for each sample and the results are expressed as the group mean fold change±SEM.
On the technique in general: Quantitative PCR measures a nucleic acid by following its amplification.

In experiment [4] the test system is GLAST. The experiment in a line: Immunohistochemistry of rat lumbar spinal cord, GLAST. It is filed as in vivo. Conditions: day 12 post-transection, ipsilateral side. Here is the method: For assessment of GFAP, GLT-1 and GLAST immunoreactivity, a separate group of rats (n=4/treatment) were anesthetized and transcardially perfused with 0.1 M PBS (phosphate-buffered saline), pH 7.4, followed by 4% paraformaldehyde in PBS on day 12 post-L5 spinal nerve transection. Lumbar spinal cord sections were identified, isolated, and processed as described previously (Colburn, R. W. et al. 1997. J. Neuroimmunol. 79:163-175). Free-floating, […] were cut in a cryostat and processed for immunofluorescence. Sections were blocked with 5% FBS/0.1% Triton-X 100 for 1 hour at room temperature (RT). For double immunofluorescence, spinal sections were incubated with a mixture of rabbit polyclonal anti-GLT-1 (1:500) or guinea pig anti-GLAST (1:5000, Chemicon, Temecula, Calif.), and mouse anti-GFAP G-A-5 (astrocyte marker, 1:400, Sigma Chemical Co., St. Louis, Mo.) in 3% FBS/0.1% triton-X 100/TBS over night at 4° C., washed, incubated in a mixture of goat anti-rabbit Alexa Fluor™-555 and goat anti-mouse Alexa Fluor™-488 (1:250, Molecular Probes, Eugene, Oreg.) secondary antibodies in 3% FBS/0.1% triton-X 100/TBS for 1 hour at RT. To control for nonspecific staining, control sections were incubated in the absence of primary antibodies. The sections were examined with a fluorescence microscope, and images were captured with a Q-Fire cooled camera. […]

In experiment [5] the test system is L5 spinal nerve transection. Conditions: systemically or intrathecally administered; Sweitzer et al. 2001; cited from earlier work.

“Also recorded” adds a separate entry of the source.

With `CCCn1cnc2c1c(=O)n(CCCCC(C)=O)c(=O)n2C` [propentofylline], the GLT-1 staining entry in experiment [1] was “concomitant increase in GLT-1 staining”. Also, the GLAST staining result in experiment [2] is on record as “slightly increased GLAST staining”. Moreover, the “GLAST mRNA in lumbar spinal cord” value in experiment [3] (day 4, compared to L5 spinal nerve transection alone) is on record as “slight decrease in GLAST mRNA”. Moreover, the “GLAST mRNA levels (FIG. 9B legend)” value in experiment [3] (days 4 and 12 post-transection) is “unaffected”. Besides, the “GLAST immunoreactivity in dorsal horn” value in experiment [4] is “did not enhance GLAST immunoreactivity on the ipsilateral side”. For the same compound, in experiment [5], the “mechanical allodynia induced by L5 spinal nerve transection” value is on record as “exhibits anti-allodynic properties; also recorded: attenuated mechanical allodynia”.
